Data reported in PubChem BioAssay AID184 (DTP/NCI, 2004).
Where “and” joins values, the source holds several entries; their conditions need not be identical. Equal entries are not always repeated. Toxic doses and inconclusive results are not listed. Rule for the calls: active = survival T/C of 150% or more; inactive = T/C below 125% in these data.

System: BALB/cJ mice, ADJ-PC-6 ip tumor, median survival T/C
Assay: NCI In Vivo Anticancer Drug Screen. Data for tumor model ADJ-PC-6 (intraperitoneal) in BALB/cJ mice
Conditions: endpoint: median survival time, higher = longer survival
Experimental: The antitumor activity of compounds was measured in mice bearing transplantable tumors. Survival or tumor size were measured and the results are expressed as the measurement made in the treated group (T) divided by the measurement made in the vehicle treated control group (C). The tumor model used in this assay is ADJ-PC-6 (intraperitoneal) in BALB/cJ mice

[1] = dose: 10.0 mg/kg/injection, schedule: Q04DX003 (ip), vehicle: saline
[2] = dose: 20.0 mg/kg/injection, schedule: Q04DX003 (ip), vehicle: saline
[3] = dose: 40.0 mg/kg/injection, schedule: Q04DX003 (ip), vehicle: saline
[4] = dose: 80.0 mg/kg/injection, schedule: Q04DX003 (ip), vehicle: saline
[5] = dose: 6.25 mg/kg/injection, schedule: Q04DX003 (ip), vehicle: saline with Tween-80
[6] = dose: 25.0 mg/kg/injection, schedule: Q04DX003 (ip), vehicle: saline with Tween-80
[7] = dose: 50.0 mg/kg/injection, schedule: Q04DX003 (ip), vehicle: saline with Tween-80
[8] = dose: 100.0 mg/kg/injection, schedule: Q04DX003 (ip), vehicle: saline with Tween-80

Measured: T/C

O=C1NC(=O)C2C3C=CC(C12)C1C2C(=O)NC(=O)C2C31 (stereo unspecified)
active: dose: 80.0 mg/kg/injection, schedule: Q01DX009 (ip), vehicle: saline with Tween-80 235 % of control
inactive: dose: 5.0 mg/kg/injection, schedule: Q01DX009 (ip), vehicle: saline with Tween-80 110 % of control | dose: 10.0 mg/kg/injection, schedule: Q01DX009 (ip), vehicle: saline with Tween-80 88 % of control and 103 % of control

O=P1(N(CCCl)CCCl)NCCCO1 (stereo unspecified)
active: dose: 32.4 mg/kg/injection, schedule: Q04DX003 (ip), vehicle: saline 166 % of control | [3] 173 % of control and 178 % of control | dose: 54.0 mg/kg/injection, schedule: Q04DX003 (ip), vehicle: saline 189 % of control | [4] 168 % of control and 335 % of control | dose: 80.0 mg/kg/injection, schedule: Q04DX003 (iv), vehicle: saline 194 % of control | dose: 90.0 mg/kg/injection, schedule: Q04DX003 (ip), vehicle: saline 267 % of control | dose: 150.0 mg/kg/injection, schedule: Q04DX003 (ip), vehicle: saline 340 % of control | dose: 160.0 mg/kg/injection, schedule: Q04DX003 (ip), vehicle: saline 194 % of control and 335 % of control | dose: 160.0 mg/kg/injection, schedule: Q04DX003 (iv), vehicle: saline 194 % of control
inactive: [1] 99 % of control | dose: 10.0 mg/kg/injection, schedule: Q04DX003 (iv), vehicle: saline 88 % of control | dose: 19.4 mg/kg/injection, schedule: Q04DX003 (ip), vehicle: saline 108 % of control | [2] 109 % of control and 110 % of control | dose: 20.0 mg/kg/injection, schedule: Q04DX003 (iv), vehicle: saline 95 % of control

NC(=O)c1cn(C2OC(CO)C(O)C2O)c2ncnc(N)c12 (stereo unspecified)
inactive: dose: 0.4 mg/kg/injection, schedule: Q04DX003 (ip), vehicle: saline with Tween-80 107 % of control
active: dose: 0.8 mg/kg/injection, schedule: Q04DX003 (ip), vehicle: saline with Tween-80 173 % of control | dose: 6.0 mg/kg/injection, schedule: Q04DX003 (ip), vehicle: saline with Tween-80 182 % of control

CN(C)c1nc(N(C)C)nc(N(C)C)n1
inactive: dose: 20.0 mg/kg/injection, schedule: Q01DX009 (ip), vehicle: saline with Tween-80 102 % of control | dose: 40.0 mg/kg/injection, schedule: Q01DX009 (ip), vehicle: Klucel (hydroxypropylcellulose) (HPC) 96 % of control | dose: 40.0 mg/kg/injection, schedule: Q01DX009 (ip), vehicle: saline with Tween-80 100 % of control

Cc1ncc(CO)c(CO)c1O
inactive: dose: 50.0 mg/kg/injection, schedule: Q01DX014 (sc), vehicle: saline 115 % of control | dose: 100.0 mg/kg/injection, schedule: Q01DX014 (sc), vehicle: saline 99 % of control | dose: 200.0 mg/kg/injection, schedule: Q01DX014 (sc), vehicle: saline 120 % of control | dose: 400.0 mg/kg/injection, schedule: Q01DX014 (sc), vehicle: saline 117 % of control

O=C(O)C1(C(=O)O)CCC1.[NH2-].[NH2-].[Pt+2]
inactive: dose: 11.7 mg/kg/injection, schedule: Q04DX003 (ip), vehicle: water 106 % of control | dose: 12.5 mg/kg/injection, schedule: Q04DX003 (ip), vehicle: saline 108 % of control | dose: 19.4 mg/kg/injection, schedule: Q04DX003 (ip), vehicle: water 106 % of control | dose: 25.0 mg/kg/injection, schedule: Q04DX003 (ip), vehicle: saline 114 % of control | dose: 90.0 mg/kg/injection, schedule: Q04DX003 (ip), vehicle: water 103 % of control
active: dose: 10.8 mg/kg/injection, schedule: Q01DX009 (ip), vehicle: water 159 % of control | dose: 18.0 mg/kg/injection, schedule: Q01DX009 (ip), vehicle: water 175 % of control | dose: 32.4 mg/kg/injection, schedule: Q04DX003 (ip), vehicle: water 164 % of control | dose: 50.0 mg/kg/injection, schedule: Q04DX003 (ip), vehicle: saline 178 % of control | dose: 54.0 mg/kg/injection, schedule: Q04DX003 (ip), vehicle: water 170 % of control and 215 % of control | dose: 100.0 mg/kg/injection, schedule: Q04DX003 (ip), vehicle: saline 217 % of control

COc1cc([C@@H]2c3cc4c(cc3[C@@H](OC3OC5COC(C)OC5C(O)C3O)[C@H]3COC(=O)[C@H]23)OCO4)cc(OC)c1O (stereo partly specified)
active: dose: 5.0 mg/kg/injection, schedule: Q04DX003 (ip), vehicle: saline 201 % of control | [5] 224 % of control | [1] 337 % of control | dose: 12.5 mg/kg/injection, schedule: Q04DX003 (ip), vehicle: saline with Tween-80 247 % of control | [2] 355 % of control | [6] 337 % of control | [3] 355 % of control | [7] 337 % of control | [4] 355 % of control | [8] 337 % of control

CC[C@](O)(C(=O)O)c1cc2n(c(=O)c1CO)Cc1cc3ccccc3nc1-2
active: [1] 158 % of control | [2] 185 % of control | dose: 30.0 mg/kg/injection, schedule: Q04DX003 (ip), vehicle: saline 158 % of control | [3] 174 % of control | dose: 60.0 mg/kg/injection, schedule: Q04DX003 (ip), vehicle: saline 188 % of control | [4] 196 % of control
inactive: dose: 3.75 mg/kg/injection, schedule: Q04DX003 (ip), vehicle: saline 111 % of control | dose: 7.5 mg/kg/injection, schedule: Q04DX003 (ip), vehicle: saline 120 % of control | dose: 15.0 mg/kg/injection, schedule: Q04DX003 (ip), vehicle: saline 115 % of control

CO[C@H]1C[C@@H]2CC[C@@H](C)[C@@](O)(O2)C(=O)C(=O)N2CCCC[C@H]2C(=O)O[C@H]([C@H](C)C[C@@H]2CC[C@@H](O)[C@H](OC)C2)CC(=O)[C@H](C)C=C(C)[C@@H](O)[C@@H](OC)C(=O)[C@H](C)C[C@H](C)/C=C/C=C/C=C1C
inactive: dose: 7.5 mg/kg/injection, schedule: Q01DX009 (ip), vehicle: saline with Tween-80 113 % of control and 114 % of control | dose: 15.0 mg/kg/injection, schedule: Q01DX009 (ip), vehicle: saline with Tween-80 116 % of control | dose: 25.0 mg/kg/injection, schedule: Q01DX009 (ip), vehicle: saline 87 % of control | dose: 30.0 mg/kg/injection, schedule: Q01DX009 (ip), vehicle: saline with Tween-80 114 % of control and 118 % of control | dose: 50.0 mg/kg/injection, schedule: Q01DX009 (ip), vehicle: saline 98 % of control | dose: 60.0 mg/kg/injection, schedule: Q01DX009 (ip), vehicle: saline with Tween-80 95 % of control and 110 % of control | dose: 100.0 mg/kg/injection, schedule: Q01DX009 (ip), vehicle: saline 87 % of control | dose: 120.0 mg/kg/injection, schedule: Q01DX009 (ip), vehicle: saline with Tween-80 87 % of control | dose: 200.0 mg/kg/injection, schedule: Q01DX009 (ip), vehicle: saline 93 % of control

CNc1nc(N(C)C)nc(N(C)C)n1
active: dose: 32.4 mg/kg/injection, schedule: Q01DX014 (sc), vehicle: saline 152 % of control | dose: 54.0 mg/kg/injection, schedule: Q01DX014 (ip), vehicle: saline 150 % of control | dose: 54.0 mg/kg/injection, schedule: Q01DX014 (sc), vehicle: saline 208 % of control | dose: 90.0 mg/kg/injection, schedule: Q01DX014 (ip), vehicle: saline 181 % of control and 297 % of control | dose: 90.0 mg/kg/injection, schedule: Q01DX014 (sc), vehicle: saline 213 % of control and 243 % of control
inactive: dose: 19.4 mg/kg/injection, schedule: Q01DX014 (ip), vehicle: saline 101 % of control | dose: 19.4 mg/kg/injection, schedule: Q01DX014 (sc), vehicle: saline 100 % of control and 105 % of control | dose: 150.0 mg/kg/injection, schedule: Q01DX014 (ip), vehicle: saline 45 % of control

Cc1c2ccncc2c(C)c2c1[nH]c1ccccc12
active: [6] 190 % of control | [7] 255 % of control | [8] 250 % of control
inactive: [5] 122 % of control

[Cl][Pt+2][Cl].[NH-]C1CCC1.[NH2-]
active: dose: 1.04 mg/kg/injection, schedule: Q04DX003 (ip), vehicle: water 216 % of control | dose: 1.73 mg/kg/injection, schedule: Q04DX003 (ip), vehicle: water 265 % of control | dose: 2.88 mg/kg/injection, schedule: Q04DX003 (ip), vehicle: water 301 % of control
